# Assay results from patent US6472413B2, “Heteroarylacryloylaminoalkyl-substituted benzenesulfonamide derivatives, their preparation, their use and pharmaceutical preparations comprising them” (Adventis Pharma Deutschland GmbH, priority 2000, dated 2002).
# Key:
# [1] = system: papillary muscle of the guinea pig; assay: Action potential duration on the papillary muscle of the guinea pig (relengthening of hypoxia-shortened APD90); format: cell-based; conditions: concentration 2 μM, 60 min after addition, percentage in relation to the shortening caused by hypoxia
# Description: Action Potential Duration on the Papillary Muscle of the Guinea Pig
# ATP deficiency states, observed during ischemia in the cardiac muscle cell, lead to a shortening of the action potential duration (ATP=adenosine triphosphate). They are regarded as one of the causes of so-called reentry arrhythmias, which can cause sudden cardiac death. The opening of ATP-sensitive potassium channels by the lowering of the ATP level is regarded as the cause of this. For the measurement of the action potential on the papillary muscle of the guinea pig a standard microelectrode technique was employed.
# Guinea pigs of both sexes were killed by a blow to the head, the hearts were removed, and the papillary muscles were separated out and suspended in an organ bath. The organ bath was rinsed with Ringer's solution (136 mmol/l of NaCl, 3.3 mmol/l of KCl, 2.5 mmol/l of CaCl2, 1.2 mmol/l of KH2PO4, 1.1 mmol/l of MgSO4, 5.0 mmol/l of glucose, 10.0 mmol/l of 1-(2-hydroxyethyl)piperazine-4-(2-ethanesulfonic acid) (HEPES), pH adjusted to 7.4 with NaOH) and aerated with 100% oxygen at a temperature of 37° C. The muscle was stimulated with square-wave pulses of 1 V and 1 ms duration and a frequency of 1 Hz by means of an electrode. The action potential was derived and recorded by means of a glass microelectrode inserted intracellularly, which was filled with 3 mol/l of KCl solution. The compound to be tested was added to the Ringer's solution in a concentration of 2 μmol/l. The action potential was amplified using an amplifier from Hugo Sachs (March-Hugstetten, Germany) and stored and analyzed by means of a computer. The duration of the action potential was determined at a degree of repolarization of 90% (APD90). After an equilibration time of 30 min, the action potential shortening was produced by rinsing the papillary muscle with a hypoxic NaCl solution. The glucose was removed here, the HEPES buffer replaced by PIPES buffer (piperazine-1,4-bis(2-ethanesulfonic acid)), the pH was adjusted to 6.5, and the aeration was carried out using 100% nitrogen. After a time of 60 min, this led to a marked shortening of the APD90. After this time, the test compound was added and the relengthening of the action potential recorded after a further 60 min. The compound-caused relengthening of the APD90 was calculated as a percentage, in relation to the shortening caused by hypoxia. The test compounds were added to the bath solution as stock solution in propanediol.
# The following relengthenings of the APD90 values were observed.
# hSUR1/hKir6.2 = hSUR1/hKir6.2 (Homo sapiens, UniProt Q09428+Q14654); assay: Action on hSUR1/hKir6.2-transfected CHO cells (hypoglycemic action), membrane potential by DIBAC4 fluorescence (FLIPR); format: cell-based; conditions: concentration 10 μM; CHO cells activated with diaxozide; mean of at least 4 experiments
# Chain of hSUR1/hKir6.2 (Q09428 whole entry): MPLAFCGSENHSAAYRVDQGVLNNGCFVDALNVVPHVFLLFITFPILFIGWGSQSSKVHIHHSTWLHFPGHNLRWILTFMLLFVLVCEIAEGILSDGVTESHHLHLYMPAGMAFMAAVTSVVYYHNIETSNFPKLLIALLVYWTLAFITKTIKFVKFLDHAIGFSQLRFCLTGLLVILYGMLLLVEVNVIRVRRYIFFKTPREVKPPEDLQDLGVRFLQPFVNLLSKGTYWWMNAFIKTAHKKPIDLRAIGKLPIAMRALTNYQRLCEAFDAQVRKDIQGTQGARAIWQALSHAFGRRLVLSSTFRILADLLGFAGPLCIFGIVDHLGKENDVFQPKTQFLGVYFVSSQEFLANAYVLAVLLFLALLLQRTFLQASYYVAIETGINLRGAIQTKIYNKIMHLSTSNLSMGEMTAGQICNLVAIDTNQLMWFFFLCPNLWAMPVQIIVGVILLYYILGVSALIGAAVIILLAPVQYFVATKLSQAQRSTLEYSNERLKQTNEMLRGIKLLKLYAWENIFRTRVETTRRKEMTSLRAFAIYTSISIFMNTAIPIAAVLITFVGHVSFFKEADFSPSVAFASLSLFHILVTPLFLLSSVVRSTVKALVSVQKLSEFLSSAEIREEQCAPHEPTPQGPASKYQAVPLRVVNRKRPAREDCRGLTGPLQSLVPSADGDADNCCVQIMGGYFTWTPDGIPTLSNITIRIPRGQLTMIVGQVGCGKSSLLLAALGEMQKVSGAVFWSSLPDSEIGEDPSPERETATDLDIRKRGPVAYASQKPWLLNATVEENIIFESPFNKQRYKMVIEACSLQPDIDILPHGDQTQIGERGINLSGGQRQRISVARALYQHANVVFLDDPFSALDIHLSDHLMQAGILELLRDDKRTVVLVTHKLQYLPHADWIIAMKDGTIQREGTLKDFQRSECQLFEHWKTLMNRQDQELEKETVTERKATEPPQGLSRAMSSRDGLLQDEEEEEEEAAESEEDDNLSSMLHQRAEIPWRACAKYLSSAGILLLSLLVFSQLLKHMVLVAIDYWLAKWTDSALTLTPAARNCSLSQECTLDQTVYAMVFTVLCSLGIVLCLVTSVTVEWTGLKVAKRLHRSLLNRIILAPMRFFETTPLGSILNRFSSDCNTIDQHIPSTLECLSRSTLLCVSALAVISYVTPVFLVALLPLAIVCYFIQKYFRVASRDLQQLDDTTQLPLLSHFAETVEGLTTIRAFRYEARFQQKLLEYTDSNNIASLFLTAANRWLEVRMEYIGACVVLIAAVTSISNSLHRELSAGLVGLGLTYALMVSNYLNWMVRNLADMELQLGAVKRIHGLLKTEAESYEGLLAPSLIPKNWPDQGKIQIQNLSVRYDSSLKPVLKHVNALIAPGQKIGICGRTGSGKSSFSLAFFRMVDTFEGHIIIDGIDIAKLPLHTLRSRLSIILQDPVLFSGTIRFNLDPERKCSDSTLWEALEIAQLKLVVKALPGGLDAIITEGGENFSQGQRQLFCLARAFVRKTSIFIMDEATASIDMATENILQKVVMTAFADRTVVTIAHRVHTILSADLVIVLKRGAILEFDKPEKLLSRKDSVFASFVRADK
# Chain of hSUR1/hKir6.2 (Q14654 whole entry): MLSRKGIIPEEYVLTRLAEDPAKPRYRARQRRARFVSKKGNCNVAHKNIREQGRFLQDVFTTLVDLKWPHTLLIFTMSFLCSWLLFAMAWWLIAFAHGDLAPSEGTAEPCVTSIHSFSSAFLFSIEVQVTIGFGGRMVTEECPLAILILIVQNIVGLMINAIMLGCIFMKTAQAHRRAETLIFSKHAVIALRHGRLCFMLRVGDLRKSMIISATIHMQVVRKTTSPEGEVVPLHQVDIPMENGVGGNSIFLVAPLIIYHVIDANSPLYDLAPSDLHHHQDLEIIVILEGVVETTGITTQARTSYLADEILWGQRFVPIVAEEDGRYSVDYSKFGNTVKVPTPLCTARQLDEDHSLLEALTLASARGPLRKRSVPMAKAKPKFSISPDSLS
# Description: Action on hSUR1/hKir6.2-transfected CHO Cells (Hypoglycemic Action)
# The target organ of these compounds is the β cell of the pancreas where they block ATP-sensitive potassium channels and produce a release of the hypoglycemic hormone insulin by influencing the electrical potential of the cell membrane.
# The extent of this depolarization of the cell membrane, which is caused by the compounds according to the invention, was investigated on CHO cells that were transfected with the cloned components of human pancreatic ATP-sensitive potassium channels, hSUR1, and hKir6.2, and activated by pretreatment with diaxozide, an opener of ATP-sensitive potassium channels. The potency of a compound with respect to the membrane potential of these transfected and activated CHO cells is a measure of the hypoglycemic potential of this compound.
# On the day of measurement, the microtiter plates were washed three times with PBS (physiological buffer solution). In the last washing step, 90 μl remained in each well. The cells were then loaded with the fluorescent dye DIBAC4 (Molecular Probes, Portland, Oreg., USA) by addition of 90 μl of a 10-micromolar solution of DIBAC4 in PBS and of 90 μl of a 400 micromolar solution of diaxozide in PBS to each well. After an incubation time of 30 min at 37° C., the microtiter plates were then transferred to a fluorescent microtiter plate reader (FLIPR; Molecular Devices, Sunnyvale, Calif., USA). The cells were stimulated by means of an argon laser (Innova 90; Coherent, Santa Clara, Calif., USA) at a wavelength of 488 nm and the fluorescence emission was measured by means of a CCD camera. The measurement of the membrane potential began after 4 min by addition of 20 μl of a solution of the test compound or of the control solution to each well, the resulting fluorescence emission being measured every 20 seconds for a period of 20 min. The data shown are mean values of at least 4 experiments.
# [2] = system: chloroform-induced ventricular fibrillation in the mouse; assay: Chloroform-induced ventricular fibrillation in the mouse (action in the case of vagal dysfunction); format: in vivo; conditions: 3 mg/kg i.p., 30 min before chloroform anesthesia, percentage of mice with ventricular fibrillation, untreated control 100%
# Description: Chloroform-induced Ventricular Fibrillation in the Mouse (Action in the Case of Vagal Dysfunction)
# Hypoactivity of the vagal nervous system leads to hyperactivity of the sympathetic nervous system. Damages to health that result from an inequilibrium of the autonomic nervous system when the dysfunction affects the heart include the weakening of the myocardial contractile force and fatal cardiac arrhythmias such as ventricular fibrillation. The action of the test compounds was investigated in the model of chloroform-induced ventricular fibrillation in the mouse (see J. W. Lawson, Antiarrhythmic activity of some isoquinoline derivatives determined by a rapid screening procedure in the mouse; J. Pharmacol. Exp. Ther. 160 (1968) 22).
# The test compound was dissolved in a mixture of dimethyl sulfoxide (DMSO) and 10 percent sodium hydrogencarbonate solution and administered intraperitoneally (i.p.). The dose was 3 mg/kg. 30 min later, the mouse was anesthetized with chloroform in a beaker. As soon as respiratory arrest had occurred under deep anesthesia (toxic stage of anesthesia), the thorax of the animal was opened using a pair of scissors and the heartbeat was visually inspected. It can be determined here at a glance whether the heart is beating, fibrillating, or has stopped. The respiratory arrest induced by chloroform leads, via an absolute anoxia (oxygen deficiency) in combination with a direct stimulating action of chloroform on the sympathetic nervous system, to a strong stimulation of the sympathetic nervous system, which in turn, and in combination with the energy deficiency caused by oxygen deficiency, leads in the heart to the fatal arrhythmia, ventricular fibrillation. This toxic chloroform anesthesia led to ventricular fibrillation in 100% of the untreated mice (control). The percentage proportion of the mice with ventricular fibrillation in the individual test groups (consisting of n animals) is indicated as the fibrillation ratio.
# The following fibrillation ratios were observed.
Blockade hSUR1/hKiR6.2 (hSUR1/hKir6.2),melting point,Compound,Relengthening of the APD90 shortened by hypoxia [1],Fibrillation ratio (in %) [2]
30.7%,–,"CNC(=S)NS(=O)(=O)c1cc(CCNC(=O)/C=C/c2cccs2)ccc1OC [Example 1, 1-[5-(2-(trans-3-(2-Thienyl)acryloylamino)ethyl)-2-methoxyphenylsulfonyl]-3-methyl-thiourea]",33%,–
1.7%,–,"CNC(=O)NS(=O)(=O)c1cc(CCNC(=O)/C=C/c2cccs2)ccc1OC [Example 3, 1-[5-(2-(trans-3-(2-Thienyl)acryloylamino)ethyl)-2-methoxyphenylsulfonyl]-3-methyl-urea]",–,65%
–,96 °C,"COc1ccc(CCNC(=O)/C=C/c2cccs2)cc1S(=O)(=O)NC(=S)NC(C)C [Example 5, 1-[5-(2-(trans-3-(2-Thienyl)acryloylamino)ethyl)-2-methoxyphenyisulfonyl]-3-isopropyl-thiourea]",–,–
–,152 °C,"CNC(=S)NS(=O)(=O)c1cc(CCNC(=O)/C=C/c2cccs2)ccc1OCCOC [Example 6, 1-[5-(2-(trans-3-(2-Thienyl)acryloylamino)ethyl)-2-(2-methoxyethoxy)phenylsulfonyl]-3-methyl-thiourea]",–,–
8.1%,–,"CNC(=O)NS(=O)(=O)c1cc(CCNC(=O)/C=C/c2cccs2)ccc1OCCOC [Example 7, 1-[5-(2-(trans-3-(2-Thienyl)acryloylamino)ethyl)-2-(2-methoxyethoxy)phenylsulfonyl]-3-methyl-urea]",39%,80%
–,101 °C,"COCCOc1ccc(CCNC(=O)/C=C/c2cccs2)cc1S(=O)(=O)NC(=S)NC(C)C [Example 8, 1-[5-(2-(trans-3-(2-Thienyl)acryloylamino)ethyl)-2-(2-methoxyethoxy)phenylsulfonyl]-3-isopropyl-thiourea]",–,–
–,74 °C,"CCOc1ccc(CCNC(=O)/C=C/c2cccs2)cc1S(=O)(=O)NC(=S)NC [Example 9, 1-[5-(2-(trans-3-(2-Thienyl)acryloylamino)ethyl)-2-ethoxyphenylsulfonyl]-3-methyl-thiourea]",–,–
–,–,"CCOCCOc1ccc(CCNC(=O)/C=C/c2cccs2)cc1S(=O)(=O)NC(=S)NC [Example 10, 1-[5-(2-(trans-3-(2-Thienyl)acryloylamino)ethyl)-2-(2-ethoxyethoxy)phenylsulfonyl]-3-methyl-thiourea]",50%,–
–,65 °C,"CCOCCOc1ccc(CCNC(=O)/C=C/c2cccs2)cc1S(=O)(=O)NC(=O)NC [Example 11, 1-[5-(2-(trans-3-(2-Thienyl)acryloylamino)ethyl)-2-(2-ethoxyethoxy)phenylsulfonyl]-3-methyl-urea]",–,–
–,78 °C,"CNC(=S)NS(=O)(=O)c1cc(CCNC(=O)/C=C/c2cccs2)ccc1OCC1CCCO1 (stereo not drawn) [Example 14, 1-[5-(2-(trans-3-(2-Thienyl)acryloylamino)ethyl)-2-(tetrahydrofuran-2-ylmethoxy)phenylsulfonyl]-3-methyl-thiourea]",–,–
–,80 °C,"CNC(=S)NS(=O)(=O)c1cc(CCNC(=O)/C=C/c2cccs2)ccc1OCC1CCCCO1 (stereo not drawn) [Example 15, 1-[5-(2-(trans-3-(2-Thienyl)acryloylamino)ethyl)-2-(tetrahydropyran-2-ylmethoxy)phenylsulfonyl]-3-methyl-thiourea]",–,–
–,161 to 163 °C,"CNC(=S)NS(=O)(=O)c1cc(CCNC(=O)/C=C/c2cccs2)ccc1OCCOC(F)(F)F [Example 16, 1-[5-(2-(trans-3-(2-Thienyl)acryloylamino)ethyl)-2-(2-(trifluoromethoxy)ethoxy)phenylsulfonyl]-3-methyl-thiourea]",–,–
–,175 to 176 °C,"CNC(=S)NS(=O)(=O)c1cc(CCNC(=O)/C=C/c2cccs2)ccc1-c1ccco1 [Example 17, 1-[5-(2-(trans-3-(2-Thienyl)acryloylamino)ethyl)-2-(2-furyl)phenylsulfonyl]-3-methyl-thiourea]",–,–
–,188 °C,"CNC(=S)NS(=O)(=O)c1cc(CCNC(=O)/C=C/c2ccccn2)ccc1OC [Example 18, 1-[5-(2-(trans-3-(2-Pyridyl)acryloylamino)ethyl)-2-methoxyphenylsulfonyl]-3-methyl-thiourea]",–,–
5.9%,–,"COCCOc1ccc(CCNC(=O)/C=C/c2ccccn2)cc1S(=O)(=O)NC(=S)NC(C)C [Example 20, 1-[5-(2-(trans-3-(2-Pyridyl)acryloylamino)ethyl)-2-(2-methoxyethoxy)phenylsulfonyl]-3-isopropyl-thiourea]",26%,80%
